In brackets after ≈: the same amount, converted by molar mass. Where two headings read alike, the source gives them in different places.

One data set relates to B. anthracis. Nature of the data set: microbe, parasite or virus in culture. Type of data set: cell-based, Bacillus anthracis.
In the next data set the test system is B. anthracis spores. As to conditions: mouse, in vivo.
The conditions of data set [1]: female, CD-1, mouse, in vivo, 32 mg/kg.
The next data set is described as follows: in vivo. The conditions noted are these: female, CD-1, mouse, 32 mg/kg.

In the case of `CN[C@H](CC(C)C)C(=O)N[C@H]1C(=O)N[C@@H](CC(N)=O)C(=O)N[C@H]2C(=O)N[C@H]3C(=O)N[C@H](C(=O)N[C@H](C(=O)O)c4cc(O)cc(O)c4-c4cc3ccc4O)[C@H](O[C@H]3C[C@](C)(N)[C@@H](O)[C@H](C)O3)c3ccc(c(Cl)c3)Oc3cc2cc(c3O[C@@H]2O[C@H](CO)[C@@H](O)[C@H](O)[C@H]2O[C@H]2C[C@](C)(NCc3ccc(-c4ccc(Cl)cc4)cc3)[C@@H](O)[C@H](C)O2)Oc2ccc(cc2Cl)[C@H]1O` [Oritavancin, N-(4-(4-chlorophenyl)benzyl)A82846B], the “MIC90 with polysorbate-80 lower than MIC90 in the absence of polysorbate-80” value against B. anthracis was determined as 16 fold. In the data set on B. anthracis (Bacillus anthracis), this compound registered an MIC90 of 0.12 µg/mL (≈ 0.0669 µM). Also, the “spore/tissue load at the termination of the study” value in the data set on B. anthracis spores was ≤ 5×10^4 CFU/g tissue. The entries for the “time-to-peak (Tmax)” value in data set [1] (ip) and in data set [1] (iv) were 4 h and 0.25 h, respectively. Further, the “time plasma concentration remained above the MIC for the Ames strain” value in data set [1] (iv) was in the range of 24 to 48 h. Also, the AUC in “in vivo” (ip) is 840 µg·h/mL; in the data set “in vivo” (iv), 950 µg·h/mL. In addition, the Cmax in “in vivo” (ip) is 95 µg/mL; in “in vivo” (iv) it was 270 µg/mL.

These data come from patent US9089507B2 (priority 2006, dated 2015).
